PubChem BioAssay AID256 (DTP/NCI, 2004)
Values joined by “and” are separate entries in the source; they are usually repeats but may differ in a detail not shown here. Equal values may be shown once. Toxic doses and inconclusive results are not listed.

Tested on: CD2F1 mice, L1210 leukemia ip, survival T/C
Experiment: NCI In Vivo Anticancer Drug Screen. Data for tumor model L1210 Leukemia (intraperitoneal) in CD2F1 (CDF1) mice
Settings: higher = longer survival
Procedure, shortened: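 In this screen, transplantable tumors were grown in mice given either the compound or its vehicle. Results were expressed as the treated measurement relative to the control measurement.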

[1] = endpoint: mean survival time, dose: 100.0 mg/kg/injection, schedule: Q04DX003 (ip), vehicle: saline with Tween-80
[2] = endpoint: mean survival time, dose: 200.0 mg/kg/injection, schedule: Q04DX003 (ip), vehicle: saline with Tween-80
[3] = endpoint: mean survival time, dose: 400.0 mg/kg/injection, schedule: Q04DX003 (ip), vehicle: saline with Tween-80

CC(C)(Nc1nc2c(ncn2C2OC(CO)C(O)C2O)c(=O)[nH]1)P(=O)(O)O (configuration not stated)
T/C (endpoint: median survival time, dose: 12.5 mg/kg/injection, schedule: Q01DX005 (ip), vehicle: water): 105 % of control
T/C (endpoint: median survival time, dose: 25.0 mg/kg/injection, schedule: Q01DX005 (ip), vehicle: water): 103 % of control
T/C (endpoint: median survival time, dose: 50.0 mg/kg/injection, schedule: Q01DX005 (ip), vehicle: water): 108 % of control
T/C (endpoint: median survival time, dose: 100.0 mg/kg/injection, schedule: Q01DX005 (ip), vehicle: water): 105 % of control

Cc1cc(C)nc(N)n1
T/C [1]: 95 % of control
T/C [2]: 98 % of control
T/C [3]: 98 % of control

Cc1ccc(C2(c3ccccc3)c3ccccc3C(=O)N2c2ccccc2)cc1 (configuration not stated)
T/C [1]: 97 % of control
T/C [2]: 101 % of control
T/C [3]: 103 % of control

Nc1nc(N)c2c(n1)NCN(CCc1ccc(Cl)cc1Cl)C2
T/C (endpoint: mean survival time, dose: 0.75 mg/kg/injection, schedule: Q01DX009 (ip), vehicle: distilled water + Tween-80): 100 % of control
T/C (endpoint: mean survival time, dose: 1.5 mg/kg/injection, schedule: Q01DX009 (ip), vehicle: distilled water + Tween-80): 102 % of control
T/C (endpoint: mean survival time, dose: 3.0 mg/kg/injection, schedule: Q01DX009 (ip), vehicle: distilled water + Tween-80): 100 % of control
T/C (endpoint: mean survival time, dose: 6.0 mg/kg/injection, schedule: Q01DX009 (ip), vehicle: distilled water + Tween-80): 102 % of control
T/C (endpoint: mean survival time, dose: 12.0 mg/kg/injection, schedule: Q01DX009 (ip), vehicle: distilled water + Tween-80): 96 % of control
T/C (endpoint: mean survival time, dose: 24.0 mg/kg/injection, schedule: Q01DX009 (ip), vehicle: distilled water + Tween-80): 98 % of control
T/C (endpoint: mean survival time, dose: 37.5 mg/kg/injection, schedule: Q01DX009 (ip), vehicle: distilled water + Tween-80): 96 % of control
T/C (endpoint: mean survival time, dose: 75.0 mg/kg/injection, schedule: Q01DX009 (ip), vehicle: distilled water + Tween-80): 94 % of control

CCCCC(CC)CCC(OC(=O)CSC#N)C(C)CC (configuration not stated)
T/C (endpoint: mean survival time, dose: 100.0 mg/kg/injection, schedule: Q01DX001 (ip), vehicle: saline): 97 % of control
T/C (endpoint: mean survival time, dose: 200.0 mg/kg/injection, schedule: Q01DX001 (ip), vehicle: saline): 91 % of control
T/C (endpoint: mean survival time, dose: 400.0 mg/kg/injection, schedule: Q01DX001 (ip), vehicle: saline): 97 % of control

CC[C@@]1(O)C(=O)OCc2c1cc1n(c2=O)Cc2cc3c(N)cccc3nc2-1
T/C (endpoint: median survival time, dose: 0.25 mg/kg/injection, schedule: Q01DX005 (ip), vehicle: saline with Tween-80): 168 % of control
T/C (endpoint: median survival time, dose: 0.3 mg/kg/injection, schedule: Q01DX005 (ip), vehicle: saline with Tween-80): 150 % of control
T/C (endpoint: median survival time, dose: 0.5 mg/kg/injection, schedule: Q01DX005 (ip), vehicle: saline with Tween-80): 182 % of control and 223 % of control
T/C (endpoint: median survival time, dose: 0.63 mg/kg/injection, schedule: Q04DX002 (ip), vehicle: saline with Tween-80): 202 % of control
T/C (endpoint: median survival time, dose: 0.84 mg/kg/injection, schedule: Q01DX005 (ip), vehicle: saline with Tween-80): 182 % of control
T/C (endpoint: median survival time, dose: 1.0 mg/kg/injection, schedule: Q01DX005 (ip), vehicle: saline with Tween-80): 108 % of control
T/C (endpoint: median survival time, dose: 1.25 mg/kg/injection, schedule: Q04DX002 (ip), vehicle: saline with Tween-80): 228 % of control
T/C (endpoint: median survival time, dose: 1.39 mg/kg/injection, schedule: Q01DX005 (ip), vehicle: saline with Tween-80): 365 % of control
T/C (endpoint: median survival time, dose: 2.0 mg/kg/injection, schedule: Q01DX005 (ip), vehicle: saline with Tween-80): 87 % of control
T/C (endpoint: median survival time, dose: 2.32 mg/kg/injection, schedule: Q01DX005 (ip), vehicle: saline with Tween-80): 121 % of control
T/C (endpoint: median survival time, dose: 2.5 mg/kg/injection, schedule: Q04DX002 (ip), vehicle: saline with Tween-80): 348 % of control and 361 % of control
T/C (endpoint: median survival time, dose: 5.0 mg/kg/injection, schedule: Q04DX002 (ip), vehicle: saline with Tween-80): 220 % of control and 361 % of control
T/C (endpoint: median survival time, dose: 10.0 mg/kg/injection, schedule: Q04DX002 (ip), vehicle: saline with Tween-80): 93 % of control

Cc1c(-c2ccc(Cl)cc2)nc2cc(Cl)ccc2c1C(=O)O
T/C (endpoint: mean survival time, dose: 100.0 mg/kg/injection, schedule: Q04DX002 (ip), vehicle: saline): 92 % of control
T/C (endpoint: mean survival time, dose: 200.0 mg/kg/injection, schedule: Q04DX002 (ip), vehicle: saline): 88 % of control
T/C (endpoint: mean survival time, dose: 400.0 mg/kg/injection, schedule: Q04DX002 (ip), vehicle: saline): 98 % of control

Cc1ccc(C)c(C(C)NC2=NCCO2)c1 (configuration not stated)
T/C (endpoint: mean survival time, dose: 12.5 mg/kg/injection, schedule: Q04DX003 (ip), vehicle: saline with Tween-80): 94 % of control
T/C (endpoint: mean survival time, dose: 25.0 mg/kg/injection, schedule: Q04DX003 (ip), vehicle: saline with Tween-80): 93 % of control
T/C (endpoint: mean survival time, dose: 50.0 mg/kg/injection, schedule: Q04DX003 (ip), vehicle: saline with Tween-80): 86 % of control and 92 % of control
T/C [1]: 91 % of control

COc1ccc2nc3cc(Cl)ccc3c(Nc3cccc(NC(C)=O)c3)c2n1
T/C (endpoint: mean survival time, dose: 25.0 mg/kg/injection, schedule: Q01DX009 (ip), vehicle: other): 102 % of control
T/C (endpoint: mean survival time, dose: 50.0 mg/kg/injection, schedule: Q01DX009 (ip), vehicle: other): 96 % of control
T/C (endpoint: mean survival time, dose: 100.0 mg/kg/injection, schedule: Q01DX009 (ip), vehicle: other): 86 % of control

O=C1CCCCC1CNCc1ccccc1 (configuration not stated)
T/C (endpoint: mean survival time, dose: 75.0 mg/kg/injection, schedule: Q01DX001 (ip), vehicle: saline): 102 % of control
T/C (endpoint: mean survival time, dose: 150.0 mg/kg/injection, schedule: Q01DX001 (ip), vehicle: saline): 93 % of control

Cc1ccc([NH-])c([NH-])c1.[Cl][Pt+2][Cl]
T/C (endpoint: mean survival time, dose: 2.5 mg/kg/injection, schedule: Q01DX009 (ip), vehicle: saline with Tween-80): 151 % of control
T/C (endpoint: mean survival time, dose: 5.0 mg/kg/injection, schedule: Q01DX009 (ip), vehicle: saline with Tween-80): 180 % of control
T/C (endpoint: mean survival time, dose: 20.0 mg/kg/injection, schedule: Q01DX009 (ip), vehicle: saline with Tween-80): 94 % of control

O=C(O)c1ccc(O)cc1C(=O)O.[NH-]C1CCCCC1[NH-].[Pt+2]
T/C (endpoint: mean survival time, dose: 1.17 mg/kg/injection, schedule: Q04DX003 (ip), vehicle: other): 168 % of control
T/C (endpoint: mean survival time, dose: 9.38 mg/kg/injection, schedule: Q04DX003 (ip), vehicle: other): 194 % of control
T/C (endpoint: mean survival time, dose: 18.75 mg/kg/injection, schedule: Q04DX003 (ip), vehicle: other): 189 % of control

CCOC(=O)C(N)CSC(=O)NC (configuration not stated)
T/C (endpoint: mean survival time, dose: 12.5 mg/kg/injection, schedule: Q01DX009 (ip), vehicle: saline): 95 % of control
T/C (endpoint: mean survival time, dose: 25.0 mg/kg/injection, schedule: Q01DX009 (ip), vehicle: saline): 103 % of control and 107 % of control
T/C (endpoint: mean survival time, dose: 50.0 mg/kg/injection, schedule: Q01DX009 (ip), vehicle: saline): 116 % of control and 97 % of control
T/C (endpoint: mean survival time, dose: 100.0 mg/kg/injection, schedule: Q01DX009 (ip), vehicle: saline): 123 % of control and 105 % of control
T/C (endpoint: mean survival time, dose: 200.0 mg/kg/injection, schedule: Q01DX009 (ip), vehicle: saline): 116 % of control and 111 % of control
T/C (endpoint: mean survival time, dose: 800.0 mg/kg/injection, schedule: Q01DX009 (ip), vehicle: saline): 94 % of control

Cc1ccc2[nH]c(-c3ccccc3)c(-c3ccccc3)c2c1
T/C [1]: 102 % of control
T/C [2]: 94 % of control
T/C [3]: 96 % of control

Cc1ccc(C2=C(Br)C(=O)C(c3ccc(C)cc3C)=C(Br)C2=O)c(C)c1
T/C (endpoint: mean survival time, dose: 100.0 mg/kg/injection, schedule: Q01DX001 (ip), vehicle: saline with Tween-80): 92 % of control
T/C (endpoint: mean survival time, dose: 200.0 mg/kg/injection, schedule: Q01DX001 (ip), vehicle: saline with Tween-80): 92 % of control
T/C (endpoint: mean survival time, dose: 400.0 mg/kg/injection, schedule: Q01DX001 (ip), vehicle: saline with Tween-80): 101 % of control

O=C(NNC(=O)c1cccnc1)Nc1cccc(Cl)c1Cl
T/C (endpoint: mean survival time, dose: 50.0 mg/kg/injection, schedule: Q01DX009 (ip), vehicle: saline with Tween-80): 94 % of control
T/C (endpoint: mean survival time, dose: 200.0 mg/kg/injection, schedule: Q01DX009 (ip), vehicle: saline with Tween-80): 101 % of control

CN1C2CCC1CC(OC(=O)c1ccccc1)C2 (configuration not stated)
T/C (endpoint: mean survival time, dose: 100.0 mg/kg/injection, schedule: Q04DX002 (ip), vehicle: Klucel (hydroxypropylcellulose) (HPC)): 121 % of control
T/C (endpoint: mean survival time, dose: 200.0 mg/kg/injection, schedule: Q04DX002 (ip), vehicle: Klucel (hydroxypropylcellulose) (HPC)): 90 % of control
T/C (endpoint: mean survival time, dose: 400.0 mg/kg/injection, schedule: Q04DX002 (ip), vehicle: Klucel (hydroxypropylcellulose) (HPC)): 100 % of control

COc1ccc(-c2nc(N)c3ncn(C4OC(CO)C(O)C4O)c3n2)cc1 (configuration not stated)
T/C (endpoint: mean survival time, dose: 12.5 mg/kg/injection, schedule: Q01DX005 (ip), vehicle: distilled water + Tween-80): 98 % of control
T/C (endpoint: mean survival time, dose: 25.0 mg/kg/injection, schedule: Q01DX005 (ip), vehicle: distilled water + Tween-80): 98 % of control
T/C (endpoint: mean survival time, dose: 50.0 mg/kg/injection, schedule: Q01DX005 (ip), vehicle: distilled water + Tween-80): 96 % of control
T/C (endpoint: mean survival time, dose: 200.0 mg/kg/injection, schedule: Q01DX005 (ip), vehicle: distilled water + Tween-80): 88 % of control

O=c1cn[nH]c(=O)[nH]1
T/C (endpoint: median survival time, dose: 62.5 mg/kg/injection, schedule: Q01DX009 (ip), vehicle: saline): 94 % of control and 100 % of control
T/C (endpoint: median survival time, dose: 125.0 mg/kg/injection, schedule: Q01DX009 (ip), vehicle: saline): 100 % of control
T/C (endpoint: median survival time, dose: 250.0 mg/kg/injection, schedule: Q01DX009 (ip), vehicle: saline): 122 % of control and 100 % of control
T/C (endpoint: median survival time, dose: 500.0 mg/kg/injection, schedule: Q01DX009 (ip), vehicle: saline): 111 % of control and 112 % of control
